Calls of active or inactive are those of the source. The calls are words filed in the database; no cut-off is given here.

For experiment [1], the system named is Mus musculus. Kind of experiment: Protection against cardiac dysfunction C57BL/6J mouse model assessed as increase in DOX-reduced cardiac Nrf2 expression at 7 mg/kg, ip administered daily for 4 weeks by Western blot analysis. The class given is functional, organism-based. In general terms: A western blot detects proteins with antibodies after separation by electrophoresis.

For experiment [2], the system named is Mus musculus. Kind of experiment: Protection against cardiac dysfunction C57BL/6J mouse model assessed as decrease in DOX-induced myocardial cell injury at 7 mg/kg, ip administered daily for 4 weeks by H and E staining based analysis. The class given is functional, organism-based.
Experiment [3] deals with RAW264.7. The experiment in a line: Antiinflammatory activity in mouse RAW264.7 cells assessed as decrease in LPS-induced iNOS expression preincubated for 1 hr followed by LPS treatment for 24 hrs by Western blot analysis. The class given is functional, cell-based. To be noted: dose <= 10.0 µM, time 25.0 hrs.
The subject of experiment [4] is RAW264.7. The experiment in a line: Antiinflammatory activity against mouse RAW264.7 cells assessed as decrease in LPS-induced IL-1beta mRNA expression upto 10 uM preincubated for 1 hr followed by LPS treatment for 24 hrs by qRT-PCR analysis. To be noted: time 25.0 hrs. The class given is functional, cell-based.
Experiment [5] relates to Mus musculus. The experiment in a line: Protection against cardiac dysfunction C57BL/6J mouse model assessed as decrease in DOX-induced TGF-beta1 expression at 7 mg/kg, ip administered daily for 4 weeks by Western blot analysis. The class given is functional, organism-based.
The subject of experiment [6] is RAW264.7. Kind of experiment: Inhibition of ROS generation in mouse RAW264.7 cells assessed as increase in DOX-reduced CAT expression upto 10 uM preincubated for 1 hr followed by DOX treatment for 12 hrs by Western blot analysis. The experiment is classed as functional, cell-based. To be noted: time 13.0 hrs.
In experiment [7] the test system is H9c2. The experiment in a line: Antiinflammatory activity against rat H9c2 cells assessed as decrease in DOX-induced IL-1beta expression upto 10 uM preincubated for 1 hr followed by DOX treatment for 12 hrs by Western blot analysis. The experiment is classed as functional, cell-based. To be noted: time 13.0 hrs.
The test system of experiment [8] is H9c2. Kind of experiment: Inhibition of ROS generation in rat H9c2 cells preincubated for 1 hr followed by LPS treatment for 24 hrs by DCFH-DA dye based analysis. The class given is functional, cell-based. To be noted: dose <= 10.0 µM, time 25.0 hrs.
In experiment [9] the test system is RAW264.7. The experiment in a line: Antiinflammatory activity against mouse RAW264.7 cells assessed as decrease in LPS-induced NF-kappaB phosphorylation upto 10 uM preincubated for 1 hr followed by LPS treatment for 24 hrs by Western blot analysis. The experiment is classed as functional, cell-based. To be noted: time 25.0 hrs.
Experiment [10] concerns Mus musculus. The experiment in a line: Protection against cardiac dysfunction C57BL/6J mouse model assessed as increase in DOX-reduced cardiac SOD1 expression at 7 mg/kg, ip administered daily for 4 weeks by Western blot analysis. The class given is functional, organism-based.
Experiment [11] deals with RAW264.7. Kind of experiment: Antiinflammatory activity in mouse RAW264.7 cells assessed as LPS-induced NO production preincubated for 1 hr followed by LPS treatment for 24 hrs by Griess reagent based assay. The class given is functional. The following applies: time 25 hrs. For orientation: The Griess reaction detects nitrite, a stable product of nitric oxide.
The test system of experiment [12] is Mus musculus. The experiment in a line: Antiinflammatory activity in cardiac dysfunction C57BL/6J mouse model assessed as decrease in DOX-induced TNF-alpha expression at 7 mg/kg, ip administered daily for 4 weeks by Western blot analysis. The experiment is classed as functional, organism-based.
The test system of experiment [13] is H9c2. The experiment in a line: Inhibition of ROS generation in rat H9c2 cells assessed as increase in DOX-reduced Nrf2 expression upto 10 uM preincubated for 1 hr followed by DOX treatment for 12 hrs by Western blot analysis. The class given is functional, cell-based. The following applies: time 13.0 hrs.
For experiment [14], the system named is Mus musculus. The experiment in a line: Protection against cardiac dysfunction C57BL/6J mouse model assessed as increase in DOX-reduced cardiac CAT expression at 7 mg/kg, ip administered daily for 4 weeks by Western blot analysis. The class given is functional, organism-based.
The subject of experiment [15] is H9c2. The experiment in a line: Inhibition of ROS generation in rat H9c2 cells assessed as increase in LPS-reduced Nrf2 expression upto 10 uM preincubated for 1 hr followed by LPS treatment for 24 hrs by Western blot analysis. To be noted: time 25.0 hrs. The class given is functional, cell-based.
The subject of experiment [16] is Mus musculus. Kind of experiment: Protection against cardiac dysfunction C57BL/6J mouse model assessed as decrease in DOX-induced alpha-SMA expression at 7 mg/kg, ip administered daily for 4 weeks by Western blot analysis. The class given is functional, organism-based.
Experiment [17] has as its system H9c2. Kind of experiment: Inhibition of ROS generation in rat H9c2 cells assessed as increase in DOX-reduced CAT expression upto 10 uM preincubated for 1 hr followed by DOX treatment for 12 hrs by Western blot analysis. The class given is functional, cell-based. The following applies: time 13.0 hrs.
Experiment [18] concerns Mus musculus. The experiment in a line: Protection against cardiac dysfunction C57BL/6J mouse model assessed as decrease in DOX-induced serum HBDH level at 7 mg/kg, ip administered daily for 4 weeks. The experiment is classed as functional, organism-based.
The test system of experiment [19] is Mus musculus. The experiment in a line: Protection against cardiac dysfunction C57BL/6J mouse model assessed as increase in DOX-reduced ratio of heart weight to body weight at 7 mg/kg, ip administered daily for 4 weeks. The class given is functional, organism-based.
Experiment [20] has as its system Mus musculus. Kind of experiment: Protection against cardiac dysfunction C57BL/6J mouse model assessed as increase in DOX-reduced cardiac NQO1 expression at 7 mg/kg, ip administered daily for 4 weeks by Western blot analysis. The class given is functional, organism-based.
For experiment [21], the system named is H9c2. Kind of experiment: Antiinflammatory activity against rat H9c2 cells assessed as decrease in DOX-induced TNF-alpha expression upto 10 uM preincubated for 1 hr followed by DOX treatment for 12 hrs by Western blot analysis. The experiment is classed as functional, cell-based. To be noted: time 13.0 hrs.
Experiment [22] has as its system RAW264.7. Kind of experiment: Antiinflammatory activity against mouse RAW264.7 cells assessed as decrease in DOX-induced NF-kappaB phosphorylation upto 10 uM preincubated for 1 hr followed by DOX treatment for 12 hrs by Western blot analysis. The experiment is classed as functional, cell-based. The following applies: time 13.0 hrs.

In the case of `CCCCOc1ccc(/C=C/c2cc(OC)cc(OC)c2C2CC(C)=NN2C(C)=O)cc1` (configuration not stated), the outcome in experiment [1], in experiment [2], in [4], in experiment [5], in experiment [7] and in experiment [9] was Active. The result in experiment [10], in experiment [12], in [14], in experiment [16], in experiment [18] and in experiment [19] was Active. Moreover, the result in experiment [20], in experiment [21] and in experiment [22] was Active. The Activity entry is “Dose-Dependent Effect” in [3] and 0.198 µM in [11]. In addition, the inhibition result in experiment [6], in experiment [13], in experiment [15] and in experiment [17] was “Active” each time. In addition, the inhibition result in experiment [8] is “Dose-Dependent Effect”.

The values are drawn from ChEMBL document CHEMBL5620413, “Novel pterostilbene derivatives ameliorate heart failure by reducing oxidative stress and inflammation through regulating Nrf2/NF-κB signaling pathway” (Eur J Med Chem, 2023).
